The values below come from patent US20140171389A1, “METHODS FOR TREATING CANCER” (THRESHOLD PHARMACEUTICALS, INC., priority 2011, published 2014).

Read-outs that look alike come from different tables or passages of the source. A value given as a limit tells only on which side of the number the result lay.

One data set has as its system AA8. Put plainly: Cytotoxicity in AA8 cells (Table 7). It counts as cell-based, chinese hamster. Conditions: Cricetulus griseus. From the text:
(§1) In contrast, the activity of the monoalkylating agent temozolomide was enhanced by ABT-888 in these cancer cell lines (see, Tables 1, 3, and 5).

A further data set has as its system EM9 cells. Put plainly: Cytotoxicity in EM9 cells deficient in base excision repair gene XRCC1 (Table 7). The class given is cell-based. The note with it: for Fold difference in sensitivity (anoxia) / Fold difference in sensitivity (normoxia): AA8 versus EM9.
Source text: as §1

The next data set relates to H460 cell lines. Put plainly: In vitro cytotoxicity (AlamarBlue) with or without ABT-888, H460. The class given is cell-based. The note with it: Homo sapiens. The procedure: (§2) The effect of the PARP inhibitor, ABT-888, on TH-302 activity was investigated in three human cancer cell lines: human non small cell lung H460, human melanoma A375, and human colorectal carcinoma HCT116.
(§3) Cells were pretreated with ABT-888 for 1 h under normoxia, and then co-incubated with TH-302 for additional 2 h under either normoxia or hypoxia. After 3 days of incubation in the presence of ABT-888, cell viability was determined using AlamarBlue. For the temozolomide (TMZ) group, cells were co-treated with temozolomide and ABT-888 for 3 days after 1 h pretreatment with ABT-888.

A further data set has as its system HCT116 cell lines. Kind of data set: In vitro cytotoxicity (AlamarBlue) with or without ABT-888, HCT116. The class given is cell-based. Conditions: Homo sapiens. The procedure:
as §2, §3
Background: Resazurin is reduced to fluorescent resorufin, in cell work by metabolically active cells.

The next data set deals with A375 cell lines. Put plainly: In vitro cytotoxicity (AlamarBlue) with or without ABT-888, A375. The class given is cell-based. Conditions: Homo sapiens. The procedure: as §2, §3
The next data set relates to AA8 cells. Kind of data set: Cytotoxicity in wild type AA8 cells, 2 h treatment, alamar blue (Table 8). The class given is cell-based, chinese hamster. Conditions: for IC50: Cricetulus griseus. The procedure: (§4) The role of homology-directed DNA repair (HDR) on TH-302 was investigated in wild type and HDR deficient chinese hamster ovary (CHO) cells. […] TH-302 activity can be modulated by pharmacological modulators of both reductases and DNA damage and repair pathways. TH-302 activity can be inhibited by the flavin reductase inhibitor DPI. TH-302 activity was not affected by the PARP inhibitor ABT-888.
(§5) The wild type AA8 cells and the HDR impaired irs1SF and UV41 cells were treated with TH-302 for 2 h, washed, and then incubated for 3 days. At the end of the incubation, viable cells were quantified using alamar blue.

For a further data set, the system named is irs1SF cells. Put plainly: Cytotoxicity in HDR impaired irs1SF cells, 2 h treatment, alamar blue (Table 8). It counts as cell-based, chinese hamster. Conditions: for IC50: Cricetulus griseus. The procedure:
as §4, §5

The subject of another data set is UV41 cells. Kind of data set: Cytotoxicity in HDR impaired UV41 cells, 2 h treatment, alamar blue (Table 8). It counts as cell-based, chinese hamster. Conditions: for IC50: Cricetulus griseus. The procedure:
as §4, §5

The test system of data set [1] is multiple human cancer cell lines. Put plainly: Hypoxia-enhanced cytotoxicity in vitro. It counts as cell-based. From the text: In these examples, pharmacological tools were utilized to test the underlying mechanisms of DNA repair processes involved in the cellular response to TH-302. In vitro cytotoxicity assays were used as the primary read-out.
A short description of data set [2]: Modulation of TH-302 activity by the flavin reductase inhibitor DPI. The note with it: with DPI. The class given is cell-based.
Source text: as §4

[3] abbreviates: CHO-AA8, read-out: IC50 (μM) Anoxia AA8.
Where [4] appears, read: CHO-AA8, read-out: IC50 (μM) Normoxia AA8.
The mark [5] stands for this setting: read-out: IC50 (μM) Normoxia EM9.

For orientation: IC50 means the concentration that gives 50% inhibition. Turning to `Nc1n[n+]([O-])c2ccccc2[n+]1[O-]` [Tirapazamine, tirapazamine], the IC50 in the data set on AA8 (setting [3]) was 50 µM; in the data set on AA8 (setting [4]) it was above 1000 µM; in the data set with EM9 cells (read-out: IC50 (μM) Anoxia EM9) it was 15 µM; with EM9 cells (setting [5]), above 1000 µM. The “Fold difference in sensitivity (anoxia)” value in the data set on EM9 cells is on record as 3 fold.

With `Cn1c(COP(=O)(NCCBr)NCCBr)cnc1[N+](=O)[O-]` [TH-302], the IC50 in the data set with H460 cell lines (NCI-H460, read-out: IC50 (μM) Hypoxia) amounted to 0.2 µM; in the data set on H460 cell lines (NCI-H460, read-out: IC50 (μM) Normoxia) it was 47 µM; in the data set with HCT116 cell lines (HCT-116, read-out: IC50 (μM) Hypoxia), 0.1 µM; in the data set with HCT116 cell lines (HCT-116, read-out: IC50 (μM) Normoxia), 61 µM; in the data set on A375 cell lines (A-375, read-out: IC50 (μM) Hypoxia) it was 1.5 µM; in the data set with A375 cell lines (A-375, read-out: IC50 (μM) Normoxia), 230 µM. Also, the IC50 in the data set with AA8 (setting [3]) was 10 µM; in the data set with AA8 (setting [4]), above 1000 µM; in the data set on EM9 cells (read-out: IC50 (μM) Anoxia EM9), 14 µM; with EM9 cells (setting [5]), 760 µM; with AA8 cells (CHO-AA8, N2, read-out: IC50 (μM) N2) it was 1.1 µM; in the data set with AA8 cells (CHO-AA8, air, read-out: IC50 (μM) Air) it was 340 µM. For the same molecule, the 50% inhibitory concentration (IC50) with irs1SF cells (N2, read-out: IC50 (μM) N2) was 0.5 µM; with irs1SF cells (air, read-out: IC50 (μM) Air) it was 95 µM; with UV41 cells (N2, read-out: IC50 (μM) N2), 0.02 µM; in the data set with UV41 cells (air, read-out: IC50 (μM) Air), 16 µM. Moreover, the “Fold difference in sensitivity (anoxia)” value with EM9 cells is on record as 1 fold. For the same molecule, the “Fold difference in sensitivity (normoxia)” value in the data set on EM9 cells (normoxia) is above 1.3 fold. Moreover, the HCR in the data set on AA8 cells (ratio air/N2) was 310; with irs1SF cells (ratio air/N2) it was 190; in the data set on UV41 cells (ratio air/N2), 800. Further, the hypoxia-enhanced cytotoxicity entry in data set [1] is “about 400 fold”. The “TH-302 activity in the presence of the flavin reductase inhibitor DPI” value in data set [2] is recorded as “inhibited”.

In the case of `Cn1nnc2c(C(N)=O)ncn2c1=O` [Temozolomide, temozolomide, reference compound], the IC50 was 540 µM with H460 cell lines (NCI-H460, H460, normoxia, 3 days co-treatment after 1 h ABT-888 pretreatment, read-out: IC50 (μM), Normoxia); 890 µM in the data set on HCT116 cell lines (HCT-116, HCT116, normoxia, 3 days co-treatment after 1 h ABT-888 pretreatment, read-out: IC50 (μM), Normoxia); 510 µM in the data set on A375 cell lines (A-375, A375, normoxia, 3 days co-treatment after 1 h ABT-888 pretreatment, read-out: IC50 (μM), Normoxia); above 1000 µM in the data set with AA8 (CHO-AA8, AA8, normoxia, read-out: IC50 (μM) Normoxia AA8); 168 µM in the data set on EM9 cells (EM9, normoxia, read-out: IC50 (μM) Normoxia EM9). Moreover, in the data set with EM9 cells (normoxia), the “Fold difference in sensitivity (normoxia)” value was above 5.9 fold.
